These results are taken from patent publication US9345710B2, “Inhibitors of phosphatidic acid phosphohydrolase (PAP) enzymes for the treatment of cancers that depend on members of the ErbB/HER tyrosine kinase receptor family” (PONTIFICA UNIVERSIDAD CATOLICA DE CHILE, priority 2011, dated 2016).

Values joined by “and” are separate entries in the source; they are usually repeats but may differ in a detail not shown here. Equal values may be shown once.

Series [1] deals with EGFR at the cell surface. Conditions: highest dose 300 μM, 30 min; cited from earlier work.
The conditions of series [2]: cited from earlier work.
The next series has as its system EGFR. The series is described as follows: Indirect immunofluorescence of EGFR distribution in HeLa cells. Also noted: EGFR endocytosis (immunofluorescent pattern): dose or concentration left out as unconfirmed. Conditions: for EGFR endocytosis (immunofluorescent pattern): […] μM propranolol, […] μM desipramine; for EGFR staining pattern by indirect immunofluorescence: 30 min, 100 μM D- or L-propranolol, 20 μM desipramine.

Series [3] has as its system EGFR at the cell surface. Nature of the series: 125I-EGF radioligand binding assay on HeLa cells (EGFR at the cell surface). The class given is cell-based, human. Conditions: for decrease of EGFR at the cell surface (125I-EGF binding): 30 min, HeLa. Here is the method:
(§1) HeLa cells used for the radioligand binding assays and immunofluorescence to study EGFR endocytosis have been characterized previously in our laboratory (64, 122, 152). The cells were grown to approximately 80% confluence and maintained without serum for 4 h before testing. U87 human […] cells from the ATCC were grown and transfected with pcDNA3.1-EGFRvIII-myc using the lipofectamine method following the manufacturer's instructions (Invitrogen). 100,000 U87 cells were seeded in 15 mm plated and after 48 hours of seeding cells were transfected with 1 μg of plasmid pcDNA3-EGFRvIII-myc. After 48 hours post-transfection the selection medium (DMEM, 10% Fetal Bovine Serum (FBS) supplemented with antibiotics (100 IU/ml penicillin, […] streptomycin) and 0.8 mg/ml Geneticin was added (G418, Sigma). After 2 weeks in selection media, permanently transfected cells were obtained (U87-EGFRvIII).
The radioligand ^125I-human EGF was prepared by the chloramine T method as described (122, 152, 160) yielding specific activities of 50000-70000 cpm/ng. Binding assays were performed in Hanks solution with 20 mM HEPES and 0.2% bovine serum albumin (BSA) for 1 h at 4° C., as described (122). HeLa cells deprived of serum for 4 h were treated for 30 min with the indicated doses of various drugs and then incubated with 20 ng/ml ^125I-EGF at 4° C. in binding medium (MEM-Hank's, 25 mM HEPES, 0.2% BSA RIA grade), stirring for 1 h. The cells were lysed with 1 N NaOH for 2 h at room temperature and the counts per minute of each sample in triplicate was determined in a gamma counter, including a nonspecific binding point obtained by incubation with an excess (500 fold) of cold ligand, whose value was subtracted from each sample. The radioligand binding in saturating condition provides an estimate of the amount of EGFR on the cell surface.

Another series concerns H1975 cells. The series is described as follows: Proliferation/viability, NSCLC cells H1975 (EGFR L858R/T790M). The class given is cell-based, human. Conditions: 10 or 30 μM D-Prop, 1 μM Des, alone or combined, 4 days. How it is done:
(§2) Viable cells counted in an automatic cell counter after incubation with vital tripan blue dye are represented as % of live cells respect to untreated controls.
(§3) Cells were seeded at a density of 10.000 cells per well in 24-well plates in triplicate and cultured in DMEM supplemented with 10% FBS and antibiotics (penicillin 100 U/ml and streptomycin 100 mg/ml). The medium with the drugs was changed each 24 hours. The respective controls received only culture medium. Viable cells were counted after 4 days of treatment in an automatic cell counter (Countess, Invitrogen) after incubation with vital tripan blue dye and are represented as % of live cells respect to untreated controls.

The next series has as its system MDCK cells. The series is described as follows: Proliferation/viability, non-tumoral MDCK cells (selectivity control). The class given is cell-based, canine. Conditions: 10 or 30 μM D-Prop, 1 μM Des, alone or combined, 4 days. How it is done:
as §2, §3

Another series relates to U87 cells. Nature of the series: Proliferation/viability of cultured tumor cells, U87. The series is classed as cell-based, human. To be noted: 10 μM D-Prop, 1 μM Des, alone or combined, 4 days. Here is the method:
as §1
(§4) Cells were seeded at a density of 10.000 cells per well in 24-well plates in triplicate and cultured in DMEM supplemented with 10% FBS and antibiotics (penicillin 100 U/ml and streptomycin 100 mg/ml). The medium with the drugs was changed each 24 hours. […] Viable cells were counted after 4 days of treatment in an automatic cell counter (Countess, Invitrogen) after incubation with vital tripan blue dye and are represented as % of live cells respect to untreated controls.

The test system of a further series is U87-EGFRvIII cells. Nature of the series: Proliferation/viability of cultured tumor cells, U87-EGFRvIII. The series is classed as cell-based, human. To be noted: 10 μM D-Prop, 1 μM Des, alone or combined, 4 days. Here is the method: as §1, §4
The next series deals with GBM1 cells. Nature of the series: Proliferation/viability of primary glioblastoma cells GBM1. To be noted: 10 μM D-Prop, 1 μM Des, alone or combined, 4 days. The series is classed as cell-based, human. How it is done: as §3
In the next series the test system is B16F10 cells. Nature of the series: Proliferation/viability, melanoma cells B16F10. The class given is cell-based, mice. To be noted: 10 or 30 μM D-Prop, 1 μM Des, alone or combined, 4 days. Here is the method: as §2, §3
For the next series, the system named is UCI 101 cells. Nature of the series: Proliferation/viability, ovarian cancer cells UCI 101. The series is classed as cell-based, human. Conditions: 10 or 30 μM D-Prop, 1 μM Des, alone or combined, 4 days. How it is done:
as §2, §3

In the case of `CC(C)NCC(O)COc1cccc2ccccc12` (racemic) [propranolol], in the series on EGFR at the cell surface [1], the “decrease of the levels of EGFR at the cell surface (125I-EGF binding)” value is on record as 80%. In addition, in [2] (human, in vivo), the “half-time of concentration in circulation” value is 4 to 6 h. Also, the “EGFR endocytosis (immunofluorescent pattern)” value with EGFR is reported as “induce endocytosis of the EGFR”.

With `CC(C)NC[C@@H](O)COc1cccc2ccccc12` [D-propranolol], the “decrease of EGFR at the cell surface (125I-EGF binding)” value in the series with EGFR at the cell surface [3] (250 μM) is given as ~80%; in the series on EGFR at the cell surface [3] ([…] μM), “about 50%”. Further, in the series on H1975 cells, the “viable cells (% of live cells respect to untreated controls), H1975” value is “sensitive”. Further, the “viable cells (% of live cells respect to untreated controls), MDCK” value in the series with MDCK cells is reported as “not affected”. Also, the “proliferation of U87 cells” value in the series on U87 cells was “not sensitive”. In addition, in the series on U87-EGFRvIII cells, the “proliferation of U87-EGFRvIII cells” value is “decrease their proliferation”. The “proliferation of GBM1 cells” value with GBM1 cells was “decrease their proliferation”. Moreover, in the series on B16F10 cells, the “viable cells (% of live cells respect to untreated controls), B16F10” value is listed as “sensitive”. For the same compound, the “concentration in the blood of patients” value in series [2] (patients treated for arrhythmia, 12 h after the last dose (ref. 14)) was ~10 µM. The “viable cells (% of live cells respect to untreated controls), UCI 101” value with UCI 101 cells is “sensitive”. For the same compound, the “EGFR staining pattern by indirect immunofluorescence” value (shortened to “EGFR staining pattern”) with EGFR is “the pattern changed to an intracellular location, mainly at the perinuclear region”.

By EC50 is commonly meant the midpoint of the concentration-response curve. In the case of `CNCCCN1c2ccccc2CCc2ccccc21` [desipramine], the EC50 in the series with EGFR at the cell surface [3] (HeLa cells, serum deprived 4 h, drug 30 min, read-out: EC50 for decrease in 125I-EGF binding (EGFR at the cell surface)) was 20 to 25 µM and ~20 µM. Also, in the series with H1975 cells, the “viable cells (% of live cells respect to untreated controls), H1975” value is “sensitive”. Also, the “viable cells (% of live cells respect to untreated controls), MDCK” value in the series on MDCK cells is recorded as “not affected”. Besides, the “proliferation of U87 cells” value with U87 cells was “not sensitive”. Moreover, the “proliferation of U87-EGFRvIII cells” value with U87-EGFRvIII cells is on record as “decrease their proliferation”. For the same compound, the “proliferation of GBM1 cells” value with GBM1 cells is on record as “decrease their proliferation”. Also, the “viable cells (% of live cells respect to untreated controls), B16F10” value in the series on B16F10 cells was “sensitive”. The “reported effective blood concentration” value in series [2] (human, in vivo) was 1 µM. The “viable cells (% of live cells respect to untreated controls), UCI 101” value with UCI 101 cells is recorded as “sensitive”. In addition, in the series on EGFR, the “EGFR staining pattern” value is given as “the pattern changed to an intracellular location, mainly at the perinuclear region” and the “EGFR endocytosis (immunofluorescent pattern)” value is “induce endocytosis of the EGFR”.

`CC(C)NC[C@H](O)COc1cccc2ccccc12` [L-propranolol]: the “decrease of EGFR at the cell surface (125I-EGF binding)” value with EGFR at the cell surface [3] (250 μM) was ~80%; in the series with EGFR at the cell surface [3] ([…] μM) it was “about 50%”. For the same compound, in the series with EGFR, the “EGFR staining pattern” value is given as “the pattern changed to an intracellular location, mainly at the perinuclear region”.
